Assay results: patent publication US20230381142A1, “ANTILEISHMANIAL COMPOUNDS, COMPOSITIONS AND USE THEREOF” (TRUSTEES OF BOSTON UNIVERSITY, priority 2022, published 2023)

Experiment: Mouse microsomal stability
Assay type: in vitro ADME
Settings: mouse liver microsomes
Description: Mouse microsomal stability assays were performed as described. Test compound (0.5 μM) was incubated with female CD1 mouse (Xenotech) liver microsomes and their action started with addition of excess NADPH (8 mg/mL 50 mM potassium phosphate buffer, pH 7.4). Aliquots (50 μL) of the incubation mixture were removed immediately (at time 0) and at 3, 6, 9, 15, and 30 min and mixed with acetonitrile (100 μL) to stop the reaction. Internal standard was added to all samples, the samples were centrifuged to sediment precipitated protein, and the plates were then sealed prior to UPLC-MS/MS analysis using a Quattro Premier XE (Waters Corporation, USA). XLfit (IDBS, UK) was used to calculate the exponential decay and consequently the rate constant (k) from the ratio of the peak area of test compound to internal standard at each time point. The rate of intrinsic clearance (Cli) of each test compound was then calculated using the equation Cli (mL/min/g liver)=k×V×microsomal protein yield, where V (mL/mg protein) is the incubation volume/mg protein added and microsomal protein yield is taken as 52.5 mg protein/g liver. Verapamil (0.5 μM) was used as a positive control to confirm acceptable assay performance.

For COc1ccc(N2C(=O)c3[nH]nc(CC(C)C)c3C2c2ccc(F)cc2)cc1 (racemic) [Compound 1, 4-(4-fluorophenyl)-3-isobutyl-5-(4-methoxyphenyl)-4,5-dihydropyrrolo[3,4-c]pyrazol-6(1H)-one], the half-life at 0.5 μM (female, CD1, pH 7.4, read-out: Microsomal stability (mouse) t1/2) was over 20 min and the “Microsomal stability (mouse) Clint” value was “Clint < 3.4 mL/min/g”.
